Assay results reported in US10160747B2, “Compounds and methods for kinase modulation, and indications therefor” (Plexxikon Inc., priority 2016, dated 2018).

Tests used:
Format in all cases: biochemical
[1] = target: T1, FLT3-ITD (Homo sapiens, UniProt P36888); assay: FLT3-ITD recombinant enzyme kinase assay (AlphaScreen); conditions: 8 pt; read-out: FLT3_ITD 8 pt: IC50
T1 sequence (P36888 1-993): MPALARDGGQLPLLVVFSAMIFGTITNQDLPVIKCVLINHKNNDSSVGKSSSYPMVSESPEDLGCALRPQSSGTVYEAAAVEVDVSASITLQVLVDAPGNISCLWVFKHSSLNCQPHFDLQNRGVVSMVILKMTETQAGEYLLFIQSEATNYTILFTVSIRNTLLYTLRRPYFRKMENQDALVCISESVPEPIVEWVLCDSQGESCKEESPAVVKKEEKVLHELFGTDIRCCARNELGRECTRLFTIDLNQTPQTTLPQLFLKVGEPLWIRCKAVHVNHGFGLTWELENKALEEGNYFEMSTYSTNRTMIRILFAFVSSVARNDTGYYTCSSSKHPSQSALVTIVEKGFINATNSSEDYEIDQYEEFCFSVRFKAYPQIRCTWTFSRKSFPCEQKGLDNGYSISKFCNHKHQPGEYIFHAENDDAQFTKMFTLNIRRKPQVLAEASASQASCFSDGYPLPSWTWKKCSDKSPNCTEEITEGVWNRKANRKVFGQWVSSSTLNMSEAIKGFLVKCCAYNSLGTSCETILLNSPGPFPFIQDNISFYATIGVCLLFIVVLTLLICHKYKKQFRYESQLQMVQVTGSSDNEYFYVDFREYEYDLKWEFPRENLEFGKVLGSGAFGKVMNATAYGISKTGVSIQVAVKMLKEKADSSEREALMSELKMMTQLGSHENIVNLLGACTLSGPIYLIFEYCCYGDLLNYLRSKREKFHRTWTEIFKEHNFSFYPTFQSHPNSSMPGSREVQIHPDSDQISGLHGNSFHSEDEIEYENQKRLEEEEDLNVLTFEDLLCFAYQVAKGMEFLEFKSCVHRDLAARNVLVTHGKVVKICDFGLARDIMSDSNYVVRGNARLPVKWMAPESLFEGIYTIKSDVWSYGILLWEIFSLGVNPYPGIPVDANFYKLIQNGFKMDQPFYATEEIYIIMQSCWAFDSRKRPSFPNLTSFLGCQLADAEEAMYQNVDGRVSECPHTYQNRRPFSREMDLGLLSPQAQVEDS
Outline: (§1)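 IC50 values come from AlphaScreen proximity signal: phosphorylated biotin-poly(Glu4-Tyr) (30 nM) bridges streptavidin donor and anti-phosphotyrosine PY20 acceptor beads. Enzyme reactions ran at 100 μM ATP for c-KIT versus 10 μM for both FLT3 mutants (ITD, D835Y); beads added in stop buffer, room temperature.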

[2] = target: T2, c-KIT (Homo sapiens, UniProt P10721); assay: c-KIT recombinant enzyme kinase assay (AlphaScreen); conditions: 100 ATP, 8 pt
T2 construct: purchased Millipore 14-559K
T2 sequence (P10721 26-976): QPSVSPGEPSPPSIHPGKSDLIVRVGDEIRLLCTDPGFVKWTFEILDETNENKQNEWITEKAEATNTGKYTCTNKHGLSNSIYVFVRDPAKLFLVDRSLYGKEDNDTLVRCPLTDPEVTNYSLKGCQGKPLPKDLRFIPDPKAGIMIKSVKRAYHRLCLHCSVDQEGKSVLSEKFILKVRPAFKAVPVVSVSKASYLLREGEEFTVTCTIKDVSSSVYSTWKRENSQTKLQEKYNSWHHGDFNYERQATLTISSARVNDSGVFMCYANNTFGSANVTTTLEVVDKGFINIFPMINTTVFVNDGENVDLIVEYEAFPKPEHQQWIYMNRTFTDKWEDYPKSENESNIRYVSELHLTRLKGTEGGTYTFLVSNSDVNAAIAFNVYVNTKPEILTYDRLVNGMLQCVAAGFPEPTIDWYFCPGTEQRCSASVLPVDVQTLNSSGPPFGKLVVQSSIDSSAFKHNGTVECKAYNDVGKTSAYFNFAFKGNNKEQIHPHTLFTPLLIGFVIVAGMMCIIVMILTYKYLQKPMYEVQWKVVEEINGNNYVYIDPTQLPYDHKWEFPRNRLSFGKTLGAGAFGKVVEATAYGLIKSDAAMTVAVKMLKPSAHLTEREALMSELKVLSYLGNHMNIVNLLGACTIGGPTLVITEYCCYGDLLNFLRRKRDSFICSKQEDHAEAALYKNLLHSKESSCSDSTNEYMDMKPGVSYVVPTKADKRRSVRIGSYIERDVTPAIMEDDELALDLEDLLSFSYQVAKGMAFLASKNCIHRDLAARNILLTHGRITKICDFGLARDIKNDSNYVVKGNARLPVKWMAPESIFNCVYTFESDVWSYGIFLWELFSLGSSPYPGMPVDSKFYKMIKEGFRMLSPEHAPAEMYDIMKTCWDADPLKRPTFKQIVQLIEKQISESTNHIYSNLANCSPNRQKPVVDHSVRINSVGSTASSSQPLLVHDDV
Outline: as §1

[3] = target: T3, FLT3-D835Y (Homo sapiens, UniProt P36888, D835Y); assay: FLT3-D835Y recombinant enzyme kinase assay (AlphaScreen); conditions: 8 pt, GMean
T3 construct: purchased Invitrogen PV3967
T3 sequence (P36888 27-993 D835Y): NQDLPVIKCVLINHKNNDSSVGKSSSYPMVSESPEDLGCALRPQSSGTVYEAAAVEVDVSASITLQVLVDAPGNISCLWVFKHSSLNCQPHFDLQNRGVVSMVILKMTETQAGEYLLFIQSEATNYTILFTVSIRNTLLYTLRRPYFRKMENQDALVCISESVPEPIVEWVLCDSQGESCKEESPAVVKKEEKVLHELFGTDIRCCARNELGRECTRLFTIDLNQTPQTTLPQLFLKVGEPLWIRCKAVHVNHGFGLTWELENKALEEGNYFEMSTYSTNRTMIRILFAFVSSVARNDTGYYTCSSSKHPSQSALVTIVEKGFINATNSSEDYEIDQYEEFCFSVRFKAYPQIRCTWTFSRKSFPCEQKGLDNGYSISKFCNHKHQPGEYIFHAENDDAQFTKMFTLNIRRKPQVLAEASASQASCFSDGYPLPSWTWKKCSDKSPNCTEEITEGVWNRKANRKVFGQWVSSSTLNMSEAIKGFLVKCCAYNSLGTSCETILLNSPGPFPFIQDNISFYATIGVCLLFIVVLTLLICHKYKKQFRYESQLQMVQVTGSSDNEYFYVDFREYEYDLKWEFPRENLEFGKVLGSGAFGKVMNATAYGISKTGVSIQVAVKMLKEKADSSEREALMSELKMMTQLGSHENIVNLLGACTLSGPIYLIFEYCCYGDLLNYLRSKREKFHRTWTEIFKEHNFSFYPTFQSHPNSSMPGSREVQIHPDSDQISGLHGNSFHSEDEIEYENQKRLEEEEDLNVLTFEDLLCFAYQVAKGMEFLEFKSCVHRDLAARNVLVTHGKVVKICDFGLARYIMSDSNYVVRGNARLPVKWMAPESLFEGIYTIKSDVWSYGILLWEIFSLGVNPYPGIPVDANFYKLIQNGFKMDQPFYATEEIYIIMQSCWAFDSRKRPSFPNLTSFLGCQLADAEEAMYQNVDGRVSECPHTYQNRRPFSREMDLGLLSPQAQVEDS
Outline: as §1

IC50 [1]	IC50 [2]	IC50 [3]	Structure (SMILES)
0.0001 to 10 µM	0.0001 to 10 µM	0.0001 to 10 µM	Cn1cc(Nc2ncc(-c3ccc(CC(=O)Nc4cccc(C(F)(F)F)c4)cc3)cn2)cn1 [Compound P-0141, 2-[4-[2-[(1-methylpyrazol-4-yl)amino]pyrimidin-5-yl]phenyl]-N-[3-(trifluoromethyl)phenyl]acetamide]
0.0001 to 10 µM	0.0001 to 10 µM	0.0001 to 10 µM	Cn1cc(Nc2ncc(-c3ccc(CC(=O)Nc4ccc(C(F)(F)F)c(F)c4)cc3)cn2)cn1 [Compound P-0142, N-[3-fluoro-4-(trifluoromethyl)phenyl]-2-[4-[2-[(1-methylpyrazol-4-yl)amino]pyrimidin-5-yl]phenyl]acetamide]
0.0001 to 10 µM	0.0001 to 10 µM	0.0001 to 10 µM	Cn1cc(Nc2ncc(-c3ccc(CC(=O)Nc4ccc(C(C)(C)C)nc4)cc3)cn2)cn1 [Compound P-0143, N-(6-tert-butyl-3-pyridyl)-2-[4-[2-[(1-methylpyrazol-4-yl)amino]pyrimidin-5-yl]phenyl]acetamide]
0.0001 to 10 µM	0.0001 to 10 µM	0.0001 to 10 µM	Cn1cc(Nc2ncc(-c3ccc(CC(=O)Nc4cncc(C(C)(F)F)c4)cc3)cn2)cn1 [Compound P-0144, N-[5-(1,1-difluoroethyl)-3-pyridyl]-2-[4-[2-[(1-methylpyrazol-4-yl)amino]pyrimidin-5-yl]phenyl]acetamide]
0.0001 to 10 µM	0.0001 to 10 µM	0.0001 to 10 µM	Cn1cc(Nc2ncc(-c3ccc(CC(=O)Nc4cnc(Cl)c(C(F)(F)F)c4)cc3)cn2)cn1 [Compound P-0145, N-[6-chloro-5-(trifluoromethyl)-3-pyridyl]-2-[4-[2-[(1-methylpyrazol-4-yl)amino]pyrimidin-5-yl]phenyl]acetamide]
0.0001 to 10 µM	0.0001 to 10 µM	0.0001 to 10 µM	Cn1cc(Nc2ncc(-c3ccc(CC(=O)Nc4ccc(C(C)(C)C#N)nc4)cc3)cn2)cn1 [Compound P-0146, N-[6-(1-cyano-1-methyl-ethyl)-3-pyridyl]-2-[4-[2-[(1-methylpyrazol-4-yl)amino]pyrimidin-5-yl]phenyl]acetamide]

The next lines start with the compound.

Structure (SMILES)	IC50 [1]	IC50 [2]	IC50 [3]
Cn1cc(Nc2ncc(-c3ccc(CC(=O)Nc4ccc(C(C)(C)C#N)nc4)c(F)c3)cn2)cn1 [Compound P-0108, N-[6-(1-cyano-1-methyl-ethyl)-3-pyridyl]-2-[2-fluoro-4-[2-[(1-methylpyrazol-4-yl)amino]pyrimidin-5-yl]phenyl]acetamide]	0.0001 to 10 µM	0.0001 to 10 µM	0.0001 to 10 µM
Cn1cc(Nc2ncc(-c3ccc(CC(=O)Nc4ccc(C(F)(F)F)cn4)cc3)cn2)cn1 [Compound P-0109, 2-[4-[2-[(1-methylpyrazol-4-yl)amino]pyrimidin-5-yl]phenyl]-N-[5-(trifluoromethyl)-2-pyridyl]acetamide]	0.0001 to 10 µM	0.0001 to 10 µM	0.0001 to 10 µM
Cn1cc(Nc2ncc(-c3ccc(CC(=O)Nc4ccc(C(F)(F)F)nc4)c(F)c3)cn2)cn1 [Compound P-0110, 2-[2-fluoro-4-[2-[(1-methylpyrazol-4-yl)amino]pyrimidin-5-yl]phenyl]-N-[6-(trifluoromethyl)-3-pyridyl]acetamide]	0.0001 to 10 µM	0.0001 to 10 µM	0.0001 to 10 µM
CCc1cncc(NC(=O)Cc2ccc(-c3cnc(Nc4cnn(C)c4)nc3)cc2F)c1 [Compound P-0111, N-(5-ethyl-3-pyridyl)-2-[2-fluoro-4-[2-[(1-methylpyrazol-4-yl)amino]pyrimidin-5-yl]phenyl]acetamide]	0.0001 to 10 µM	0.0001 to 10 µM	0.0001 to 10 µM
Cn1cc(Nc2ncc(-c3ccc(CC(=O)Nc4cccnc4)cc3)cn2)cn1 [Compound P-0131, 2-[4-[2-[(1-methylpyrazol-4-yl)amino]pyrimidin-5-yl]phenyl]-N-(3-pyridyl)acetamide]	0.0001 to 10 µM	0.0001 to 10 µM	0.0001 to 10 µM
COc1cncc(NC(=O)Cc2ccc(-c3cnc(Nc4cnn(C)c4)nc3)cc2)c1 [Compound P-0133, N-(5-methoxy-3-pyridyl)-2-[4-[2-[(1-methylpyrazol-4-yl)amino]pyrimidin-5-yl]phenyl]acetamide]	0.0001 to 10 µM	0.0001 to 10 µM	0.0001 to 10 µM
Cn1cc(Nc2ncc(-c3ccc(CC(=O)Nc4ccnc(C(F)(F)F)c4)cc3)cn2)cn1 [Compound P-0134, 2-[4-[2-[(1-methylpyrazol-4-yl)amino]pyrimidin-5-yl]phenyl]-N-[2-(trifluoromethyl)-4-pyridyl]acetamide]	0.0001 to 10 µM	0.0001 to 10 µM	0.0001 to 10 µM
Cn1cc(Nc2ncc(-c3ccc(CC(=O)Nc4cc(C(F)(F)F)ncn4)cc3)cn2)cn1 [Compound P-0135, 2-[4-[2-[(1-methylpyrazol-4-yl)amino]pyrimidin-5-yl]phenyl]-N-[6-(trifluoromethyl)pyrimidin-4-yl]acetamide]	0.0001 to 10 µM	0.0001 to 10 µM	0.0001 to 10 µM
Cn1cc(Nc2ncc(-c3ccc(CC(=O)Nc4cncc(C(F)(F)F)c4)cc3)cn2)cn1 [Compound P-0136, 2-[4-[2-[(1-methylpyrazol-4-yl)amino]pyrimidin-5-yl]phenyl]-N-[5-(trifluoromethyl)-3-pyridyl]acetamide]	0.0001 to 10 µM	0.0001 to 10 µM	0.0001 to 10 µM
Cn1cc(Nc2ncc(-c3ccc(CC(=O)Nc4ccnc(C(F)(F)F)n4)cc3)cn2)cn1 [Compound P-0137, 2-[4-[2-[(1-methylpyrazol-4-yl)amino]pyrimidin-5-yl]phenyl]-N-[2-(trifluoromethyl)pyrimidin-4-yl]acetamide]	0.0001 to 10 µM	0.0001 to 10 µM	0.0001 to 10 µM
COc1ncc(NC(=O)Cc2ccc(-c3cnc(Nc4cnn(C)c4)nc3)cc2)cc1C(F)(F)F [Compound P-0138, N-[6-methoxy-5-(trifluoromethyl)-3-pyridyl]-2-[4-[2-[(1-methylpyrazol-4-yl)amino]pyrimidin-5-yl]phenyl]acetamide]	0.0001 to 10 µM	0.0001 to 10 µM	0.0001 to 10 µM
Cn1cc(Nc2ncc(-c3ccc(CC(=O)Nc4cc(C(F)(F)F)ccn4)cc3)cn2)cn1 [Compound P-0139, 2-[4-[2-[(1-methylpyrazol-4-yl)amino]pyrimidin-5-yl]phenyl]-N-[4-(trifluoromethyl)-2-pyridyl]acetamide]	0.0001 to 10 µM	0.0001 to 10 µM	0.0001 to 10 µM
Cc1ncc(NC(=O)Cc2ccc(-c3cnc(Nc4cnn(C)c4)nc3)cc2)cc1C(F)(F)F [Compound P-0140, 2-[4-[2-[(1-methylpyrazol-4-yl)amino]pyrimidin-5-yl]phenyl]-N-[6-methyl-5-(trifluoromethyl)-3-pyridyl]acetamide]	0.0001 to 10 µM	0.0001 to 10 µM	0.0001 to 10 µM
